Measurements reported in PubChem BioAssay (NCI).
Values joined by “and” are separate entries in the source; they are usually repeats but may differ in a detail not shown here. Equal values may be shown once.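 Assay format: 96-well plates, 48-hour exposure. Here, GI50 denotes the concentration required for 50% inhibition of growth. At the TGI there is no net growth.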

Tests used:
Experiment in all cases: inhibition of tumour cell growth, NCI panel, 48 h
KM12 colon = test system: KM12 colon
M14 melanoma = test system: M14 melanoma
NCI-H460 lung = test system: NCI-H460 lung
SF-539 CNS = test system: SF-539 CNS
SK-MEL-2 melanoma = test system: SK-MEL-2 melanoma
SNB-19 CNS = test system: SNB-19 CNS
SNB-75 CNS = test system: SNB-75 CNS
SW-620 colon = test system: SW-620 colon
UACC-257 melanoma = test system: UACC-257 melanoma
T-47D breast = test system: T-47D breast

| SMILES | GI50 (KM12 colon) [µM] | TGI (KM12 colon) | TGI (M14 melanoma) [µM] | GI50 (NCI-H460 lung) [µM] | TGI (NCI-H460 lung) | GI50 (SF-539 CNS) [µM] | TGI (SF-539 CNS) | GI50 (SK-MEL-2 melanoma) [µM] | GI50 (SNB-19 CNS) [µM] | TGI (SNB-19 CNS) | GI50 (SNB-75 CNS) [µM] | GI50 (SW-620 colon) [µM] | TGI (SW-620 colon) | GI50 (UACC-257 melanoma) [µM] | TGI (UACC-257 melanoma) | TGI (SK-MEL-2 melanoma) [µM] | TGI (T-47D breast) [µM] | TGI (SNB-75 CNS) [µM] | GI50 (M14 melanoma) [µM] | GI50 (T-47D breast) [µM] |
| --- | --- | --- | --- | --- | --- | --- | --- | --- | --- | --- | --- | --- | --- | --- | --- | --- | --- | --- | --- | --- |
| CC1[C@@]2(CCC(C)(C)O2)O[C@@H]2C=C3C4CCC5Cc6nc7c(nc6C[C@@]5(C)C4C[C@H](O)[C@@]3(C)[C@]12O)CC1CCC2C3=C[C@H]4O[C@@]5(O[C@@](C)(CO)C[C@@H]5O)C(C)[C@@]4(O)[C@]3(C)[C@@H](O)CC2[C@]1(C)C7 (some centres undefined) | 0.0446 | 0.624 µM and 0.572 µM | 0.122 | 0.00135 | 0.365 µM and 0.0392 µM | 0.00303 | 0.0418 µM and 0.0415 µM | 0.00444 | 0.041 | 0.808 µM and 0.82 µM | < 0.000365 | 0.00938 | 0.499 µM and 0.0508 µM | 0.0265 | 0.358 µM and 0.0847 µM | – | – | – | – | – |
| O=[N+]([O-])c1cccc(/C=N/Nc2ccc3ccccc3n2)c1O | – | 32.9 µM | 5.32 | – | 7.21 µM | – | 8.91 µM | – | – | 47.4 µM | – | – | > 48.4 µM | – | 7.67 µM | 34.8 | 4.89 | – | – | – |
| O=C(N/C(=C\c1ccc([N+](=O)[O-])cc1)c1nc2ccccc2s1)c1ccccc1 | – | 92.1 µM | 81.8 | – | – | – | 55.1 µM | – | – | > 100 µM | – | – | 69 µM | – | 85.2 µM | 80.5 | – | 63.5 | – | – |
| CCc1ccc2c(c1)C(=O)c1c-2n(CCCN)c(=O)c2cc(OC)c(OC)cc12 | 1.41 | 3.15 µM | 3.37 | 1.85 | 3.86 µM | 1.64 | 3.07 µM | – | 1.85 | 3.46 µM | 1.96 | 1.72 | 3.33 µM | 19.5 | 43.6 µM | – | – | 4.3 | 1.8 | – |
| O=P(CN1CCOCC1)(c1ccccc1)c1ccccc1 | – | > 100 µM | > 100 | – | > 100 µM | – | > 100 µM | – | – | > 100 µM | – | – | > 100 µM | – | > 100 µM | > 100 | – | > 100 | – | – |
| CCCN1C(=O)/C(=C/c2ccc(SC(F)(F)F)cc2)SC1=Nc1ccc(OC)cc1 | 19.7 | > 50 µM | > 50 | 12.1 | > 50 µM | 9.96 | 21.6 µM | 36.5 | 17.4 | > 50 µM | – | 38.6 | > 50 µM | 2.74 | 22.4 µM | > 50 | – | – | 18.6 | – |
| CCCC1C[C@H]2CCCCN2[C@H]2CCCN12 (some centres undefined) | – | > 100 µM | > 100 | – | > 100 µM | – | > 100 µM | – | – | > 100 µM | – | – | > 58.4 µM | – | > 100 µM | > 100 | – | > 100 | – | – |
| [O]=[Sn]([CH]1CCCCC1)[CH]1CCCCC1 | 0.341 | 1.25 µM | 0.677 | 0.389 | 1.43 µM | 0.24 | 0.71 µM | 0.108 | 0.271 | 0.95 µM | 0.158 | 0.0934 | 0.238 µM | 0.133 | 0.384 µM | 0.284 | – | 0.562 | 0.239 | – |
| CC[C@H](C)[C@H](NC(=O)[C@H]1CCCCN1C)C(=O)N(C)[C@H](CCc1nc(C(=O)N[C@@H](Cc2ccccc2)C[C@H](C)C(=O)O)cs1)C(C)C | 0.115 | > 25 µM | – | 0.164 | > 25 µM | 0.0888 | 1.14 µM | 0.0789 | 0.197 | > 25 µM | 0.0621 | 0.124 | > 25 µM | > 25 | > 25 µM | > 25 | – | > 25 | – | – |
| O=C1C(Cl)=C(Nc2ccc(S(=O)(=O)c3ccc(NC4=C(Cl)C(=O)c5ccccc5C4=O)cc3)cc2)C(=O)c2ccccc21 | 2.17 | 5.38 µM | 3.26 | 2.36 | 6.53 µM | 1.91 | 3.71 µM | – | 3.11 | 13.9 µM | 1.04 | – | – | 1.92 | 3.48 µM | – | – | 2.33 | 1.82 | – |
| CCCCCCCCCCCCCCCCCc1nc(Cl)nc(Cl)c1Cl | – | > 100 µM | > 100 | – | > 100 µM | – | > 100 µM | – | – | > 100 µM | – | – | > 100 µM | – | – | – | > 100 | > 100 | – | – |
| COC(=O)C1=NC(=S)NC(c2ccccc2)C1c1nc2ccccc2o1 (centres undefined) | – | > 50 µM | > 50 | – | > 50 µM | – | > 50 µM | – | – | > 50 µM | – | – | > 50 µM | – | > 50 µM | > 50 | – | – | – | – |
| COc1ccc(/C=C/C(=O)c2c(-c3ccccc3)nn(C)c(=O)c2N2CC2C)cc1 (centres undefined) | – | > 100 µM | > 100 | – | 65.5 µM | – | > 100 µM | – | – | > 100 µM | – | – | 88.2 µM | – | > 100 µM | 47.6 | – | 73.9 | – | – |
| FC(F)(F)c1ccccc1C1SCc2nc3ccccc3n21 (centres undefined) | – | > 100 µM | – | – | – | – | > 100 µM | – | – | > 100 µM | – | – | > 100 µM | – | > 100 µM | > 100 | – | > 100 | – | – |
| CCn1cc(C(=O)O)c(=O)c2cc(F)c(N3CCN(S(=O)(=O)c4ccc(Cl)cc4Cl)CC3)cc21 | 3.42 | > 100 µM | 10.8 | 3.13 | 15.9 µM | 1.92 | 4.07 µM | 2.75 | 3.07 | 20.6 µM | – | 3.91 | > 100 µM | 2.65 | 7.93 µM | 5.8 | 9.71 | – | 3.24 | 3.11 |
| COC(=O)C(=O)C(C(=O)C(=O)Nc1ccc([N+](=O)[O-])cc1)c1nc2ccccc2[nH]c1=O (centres undefined) | – | > 100 µM | > 100 | – | > 100 µM | – | – | – | – | > 100 µM | – | – | > 100 µM | – | > 100 µM | > 100 | – | > 100 | – | – |
| Nc1nc(SCc2ccccc2CCl)c2[nH]cnc2n1 | 14.8 | 28.1 µM | 52.8 | 15.2 | 30.9 µM | 21.9 | 54 µM | – | 15.8 | 35.5 µM | 15.3 | 14.8 | 29.2 µM | 14.5 | 32.9 µM | – | 52.3 | 32.7 | 17.8 | 15.6 |
| O=C(/C=C/c1ccccc1)c1ccc(Cl)cc1Cl | – | 34.2 µM | 45.3 | – | 33.4 µM | – | 37.9 µM | – | – | 65.2 µM | – | – | 17.9 µM | – | 63.8 µM | – | – | 92.7 | – | – |
